Data published in the supplement of paper PMC10307832.

Columns and labels:
Assay in all cases: relative viability (nuclei count vs DMSO), 5 days (fraction); higher = more cells survive
[1] = compound: CN(C)C(=N)NC(=N)N [Metformin] + C[C@]1(O)C[C@@H](c2nc(-c3ccc4ccc(-c5ccccc5)nc4c3)c3c(N)nccn32)C1 [Linsitinib] (partner 1 µM)
How it was run: (§1)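 Nuclei were stained with Hoechst during a one-step fixation (final 0.05% Triton X-100, 1% formaldehyde, 1 ug/ml Hoechst) carried out 5 days after dosing, then counted on 4× images. The cells, lung cancer lines in 1536-well plates, had been dosed by pin tool the day after seeding with one drug alone or a fixed anchor-drug dose plus five library-drug doses (not always all listed) in √10 steps. Relative viability is the nuclei count in treated wells divided by that in vehicle wells, and each value is the median of duplicate plates.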

[2] = compound: CN(C)C(=N)NC(=N)N [Metformin] + CC(=O)Nc1cccc(-n2c(=O)n(C3CC3)c(=O)c3c(Nc4ccc(I)cc4F)n(C)c(=O)c(C)c32)c1 [Trametinib] (partner 0.02 µM)
How it was run: as §1

[3] = compound: CN(C)C(=N)NC(=N)N [Metformin] + CC1(C)CCC(c2ccc(Cl)cc2)=C(CN2CCN(c3ccc(C(=O)NS(=O)(=O)c4ccc(N[C@H](CCN5CCOCC5)CSc5ccccc5)c(S(=O)(=O)C(F)(F)F)c4)cc3)CC2)C1 [Navitoclax] (partner 0.5 µM)
How it was run: as §1

[4] = compound: CN(C)C(=N)NC(=N)N [Metformin] + CC(=O)c1c(C)c2cnc(Nc3ccc(N4CCNCC4)cn3)nc2n(C2CCCC2)c1=O [Palbociclib] (partner 0.5 µM)
How it was run: as §1

Cell Line	relative viability ([1]; first compound 31.62 µM)	relative viability ([1]; first compound 100 µM)	relative viability ([1]; first compound 316.23 µM)	relative viability ([1]; first compound 1000 µM)	relative viability ([2]; first compound 31.62 µM)	relative viability ([2]; first compound 100 µM)	relative viability ([2]; first compound 316.23 µM)	relative viability ([2]; first compound 1000 µM)	relative viability ([3]; first compound 31.62 µM)	relative viability ([3]; first compound 100 µM)	relative viability ([3]; first compound 316.23 µM)	relative viability ([3]; first compound 1000 µM)	relative viability ([4]; first compound 31.62 µM)	relative viability ([4]; first compound 100 µM)	relative viability ([4]; first compound 316.23 µM)	relative viability ([4]; first compound 1000 µM)	relative viability ([1]; first compound 10 µM)	relative viability ([3]; first compound 10 µM)	relative viability ([2]; first compound 10 µM)	relative viability ([4]; first compound 10 µM)
201T	1.12	1.1	1.07	1.06	0.679	0.735	0.684	0.681	1.26	1.17	1.16	1.17	0.376	0.397	0.329	0.382				
A549	0.789	0.85	0.631	0.711					1.03	1.04	0.843	0.297					0.647	0.895		
A-427	1.13	1.09	1.1	1.04	0.868	0.725	0.692	0.54	1	0.969	0.978	0.887	0.546	0.516	0.53	0.389	1.09	1.01	0.719	0.501
ABC-1	0.675	0.971	0.307	0.325									0.9	0.62	0.592	0.279				
BEN	1.27	1.3	1.15	1.29	1.5	1.43	1.13	1.21	0.0708	0.0914	0.0748	0.0712	0.529	0.523	0.436	0.456	1.21	0.0532	1.25	0.503
CAL-12T	0.81	0.824	0.691	0.759	0.443	0.404	0.432	0.452	1.35	1.14	1.29	1.09	0.53	0.488	0.384	0.423	0.818		0.357	0.579
COR-L23	0.828	0.9	0.77	0.843	0.506	0.5	0.456	0.506	0.839	0.909	0.932	1.04	0.289	0.218	0.208	0.249	0.821	0.984	0.538	0.237
COR-L 105	1.23	0.977	0.87	0.815	0.479	0.511	0.454	0.489	0.923	0.843	0.654	0.571	0.44	0.464	0.433	0.441	1.06	0.812	0.428	0.419
Calu-6	0.971	0.921	0.941	0.978					0.784	0.855	0.7	0.619					0.862	0.726		
ChaGo-K-1					0.895	0.909	0.729	0.902	1.42	0.95	0.93	1.24	0.897	0.957	0.716	0.967		1	0.923	0.92
EBC-1	0.997	0.815	0.698	0.884					0.405	0.356	0.362	0.442					0.796	0.364		
EKVX	0.969	1.04	0.861	0.9	0.196	0.354	0.265	0.334	0.889	0.968	0.779	0.948	0.312	0.355	0.384	0.357	0.739	0.681		
EMC-BAC-2	0.812	0.799	0.783	0.853	0.889		0.73	0.829	1.17	1.1	1.09	1.15	0.547	0.502	0.496	0.423	0.795	1.1	0.751	0.499
EPLC-272H	1.39	1.26	1.08	1.51	0.316	0.291	0.311	0.337	1.1	1.04	1.1	1.4	0.32	0.339	0.311	0.391	1.39	1.23	0.341	0.294
H3255	1.08	0.961	0.938	0.873	0.789	0.648	0.57	0.508	0.623	0.571	0.531	0.355	0.35	0.307	0.309	0.321	0.942	0.503	0.587	0.309
HARA	1.07	1.2	0.872	1.06	1.35	1.27	1.22	1.13	1.1	1.2	1.02	1.16	0.297	0.442	0.279	0.394	1.14	1.13	1.45	0.323
HCC-15	0.965	0.953	0.857	0.947	0.396	0.4	0.37	0.395	0.726	0.719	0.618	0.699	0.807	0.716	0.562	0.831	0.877	0.686		0.726
HCC-44	0.679	0.695	0.597	0.654	1.04	1.12	0.931	0.989	1.08	0.957	0.888	1.06	0.917	0.959	0.93	0.887	0.712	0.99		
HCC-78	0.927	0.877	0.681	0.927	1.3	1.15	1.1	0.541	1.17	1.01	1	1.06	0.507	0.452	0.505	0.483	0.842	0.994		0.479
